SMILES	melting point
O=C(O)Cc1csc(-c2ccc(F)cc2)n1	129 to 131 °C
Nc1cc(-c2cccc(Cl)c2)nn1-c1ccccc1	118 to 120 °C
Nn1c(S)nnc1-c1ccccc1	193 to 195 °C
O=C(O)c1cc2c(s1)CCOC2	148 to 150 °C
CS(=O)(=O)c1cc(S(N)(=O)=O)ccc1F	202 to 204 °C
COc1cc(Br)c(S(=O)(=O)Cl)cc1OC	92 to 94 °C
CCn1nc(N)cc1C(F)(F)F	54 to 56 °C
Nc1ccc(-n2cnnn2)cc1	140 to 142 °C
N#CC1(c2ccc3c(c2)OCO3)CC1	73 to 75 °C
O=C1CCCN1C1CCNCC1	84 to 86 °C
C#CCN1C(=O)C=CC1=O	46 to 48 °C
N#Cc1cnc2ccccc2c1N	274 to 276 °C
Cn1ccnc1C(N)c1ccccc1 (stereo not given)	51 to 53 °C
Nc1nonc1-c1ccc(F)cc1	125 to 127 °C
Nc1ccc(CN2C(=O)CSC2=O)cc1	134 to 136 °C
Nc1nnc(C2CCCCC2)o1	222 to 224 °C
CC(=O)N1CCc2ccc(S(=O)(=O)Cl)cc21	144 to 146 °C
O=C1CCCCC(N2C(=O)c3ccccc3C2=O)C1 (stereo not given)	119 to 121 °C
O=C1CCCN1c1cccc([N+](=O)[O-])c1	107 to 109 °C
Cc1cc(C(=O)O)cc(C)c1OC(F)F	189 to 191 °C
NCc1ccnc(NC2CC2)c1	39 to 41 °C
Clc1cncc(N2CCOCC2)n1	114 to 116 °C
CCn1c(C)nnc1S	129 to 131 °C
CSc1c(F)cc(N)cc1F	91 to 93 °C
Cc1nc(-c2ncccn2)sc1C(=O)O	224 to 226 °C
O=C(c1ccccc1)c1cc(Br)ccc1F	67 to 69 °C
CCc1c[nH]c(S)n1	163 to 165 °C

SMILES	melting point
CN1C(=O)CCc2cc(N)ccc21	101 to 103 °C
O=C(O)c1cn(Cc2ccccc2)nc1-c1ccccc1	189 to 191 °C
OCC1CSc2ccccc2O1 (stereo not given)	89 to 91 °C
Cc1ccccc1-n1ccnc1S	245 to 247 °C
Cc1cc(C)c(S(=O)(=O)N2CCCC2C(=O)O)c(C)c1 (stereo not given)	84 to 86 °C
NS(=O)(=O)c1cc(C(=O)O)cc([N+](=O)[O-])c1Cl	143 to 147 °C
N#CC=CS(=O)(=O)c1ccc(Cl)cc1	141 to 143 °C
CCc1cc(N)nc(C)n1	149 to 151 °C
O=S(=O)(NC1CC1)C1CCN(Cc2ccccc2)C1 (stereo not given)	94 to 96 °C
CC(C)n1c(N)nnc1S	189 to 191 °C
Cc1n[nH]c(C)c1CO	178 to 180 °C
Cc1nnc(S)n1C1CCCC(C)C1 (stereo not given)	129 to 131 °C
OCCN1CCN(Cc2ccsc2)CC1	68 to 70 °C
CCCC1CCc2[nH]c(=O)c(C#N)cc2C1 (stereo not given)	233 to 235 °C
CCCc1c(C(=O)O)[nH]c(C)c1C(=O)OC	215 to 217 °C
Cc1cc(N)n(-c2ccc(OC(F)(F)F)cc2)n1	118 to 120 °C
CSc1nc(C)c(CC(=O)O)s1	146 to 148 °C
Nc1ncccc1OCC1CCCCC1	117 to 119 °C
O=S(=O)(c1ccc(F)cc1F)N1CCNCC1	93 to 95 °C
Fc1ccc(-c2nnc(S)n2CCN2CCOCC2)cc1	212 to 214 °C
Cc1cc(=O)[nH]n1C	169 to 171 °C
ClCc1csc(-c2ccc3c(c2)OCO3)n1	106 to 108 °C
Cc1nc(-c2ccc(C(C)N)cc2)cs1 (stereo not given)	74 to 76 °C
COc1cc(C(=O)N2CCCC(C(=O)O)C2)cc(OC)c1OC (stereo not given)	189 to 191 °C
Cc1noc(-c2ccc(N)c(C)c2)n1	161 to 163 °C
O=S(=O)(Cl)c1ccccc1-c1ccccc1	94 to 96 °C
O=S(=O)(Cl)c1ccc(Br)c(C(F)(F)F)c1	29 to 31 °C

SMILES	melting point
CCC1(c2ccc(F)cc2)NC(=O)NC1=O (stereo not given)	95 to 97 °C
COc1ccc(C(N)=NO)cn1	162 to 164 °C
O=C(O)c1ccc2c(c1)C(=O)NS2(=O)=O	279 to 281 °C
O=C(O)C1CCN(C(=O)NCc2ccco2)CC1	138 to 140 °C
NS(=O)(=O)Cc1ccc(Cl)cc1Br	169 to 171 °C
O=c1[nH]c(S)nc2c1cnn2-c1cccc(Cl)c1	255 to 257 °C
Cc1cnc2c(Cl)nccc2n1	139 to 141 °C
O=C(O)CCn1cc(Cl)cn1	91 to 93 °C
Nc1ccc(-n2ccnc2)cc1	143 to 147 °C
N#Cc1c(N)nc2n1CCS2	216 to 218 °C
O=[N+]([O-])c1ccc(OCCO)cc1C(F)(F)F	62 to 64 °C
Cc1ccc(-n2c(-c3ccccc3)cnc2S)c(C)c1	247 to 249 °C
Cc1ccc(-c2nnc(N)o2)cc1F	264 to 266 °C
COc1cc(OC)c2c(-c3ccccc3)cc(S)nc2c1	230 to 232 °C
NC1(c2cccc(F)c2)CCOCC1	48 to 50 °C
CNC(=O)c1cnc(C)[nH]c1=O	319 to 321 °C
CCOC(=O)C(NS(C)(=O)=O)C(=O)OCC	72 to 74 °C
CN1Cc2ccc(N)cc2C1	61 to 63 °C
O=Cc1cnn(Cc2ccccc2Cl)c1	54 to 56 °C
O=C(O)c1ccc(NS(=O)(=O)C=Cc2ccccc2)cc1	254 to 256 °C
CC(C)Cn1c(N)c(C=O)c(=O)n(C)c1=O	192 to 194 °C
Cc1sc(NC(=O)C2CC2)c(C(=O)O)c1C	148 to 152 °C
NS(=O)(=O)c1nccs1	119 to 121 °C
O=C(O)c1ccc2c(c1)NC(=O)C1CCCN21 (stereo not given)	250 to 252 °C
Cc1nnc(CO)n1C1CC1	114 to 116 °C
COc1cc2c(c(OC)c1OC)CCNCC2	60 to 62 °C

Further lines, results first:

melting point	SMILES
149 to 151 °C	COCCOc1ccc(C(=O)O)cc1OC
8 to 10 °C	Cc1nccc(CN)n1
115 to 117 °C	O=[N+]([O-])c1ccc(O)cc1Cl
164 to 166 °C	CC(NC(=O)c1cc(-c2ccccc2)on1)C(=O)O (stereo not given)
81 to 83 °C	CNC(=O)COc1ccc(N)c(F)c1
119 to 121 °C	Nc1ccccc1C(=O)NCc1cccnc1
285 to 287 °C	Cc1ccc(NS(=O)(=O)c2ccc(C(=O)O)cc2)cc1
201 to 203 °C	NC(=O)c1c[nH]c2ccccc12
117 to 119 °C	O=C(O)Cc1sc(-c2ccccc2)nc1-c1cccs1
243 to 245 °C	Cc1ccnn1-c1ccc(C(=O)O)cc1
127 to 129 °C	CC(=O)c1ccc(N2CCC(O)CC2)cc1
170 to 172 °C	Cc1nc(NCCc2ccccc2)sc1C(=O)O
45 to 47 °C	CCOC(=O)c1c(N)sc(C)c1CC
155 to 157 °C	Cc1ccc([N+](=O)[O-])cc1NC(=O)CCCl
82 to 84 °C	Cc1ccc(C(=O)CC#N)cc1F
181 to 183 °C	CCOC(=O)c1sc2ncc(C#N)cc2c1C
104 to 106 °C	CCC(=O)Nc1ccc(C(=O)CCl)cc1
115 to 117 °C	CCOc1cc(C=O)ccc1OCc1c(Cl)cccc1Cl
58 to 60 °C	COc1ccc(C(C)=O)cc1CN1CCOCC1
92 to 94 °C	CC(C)Oc1ccccc1CC(=O)O
145 to 147 °C	Cc1ccc(C(N)=O)c(F)c1
54 to 56 °C	CCOC(=O)COc1ccc(C#N)cc1

melting point	SMILES
163 to 165 °C	O=C(O)c1ccc(F)c(S)c1
213 to 215 °C	CCOc1cc(C(=O)O)c([N+](=O)[O-])cc1OC
158 to 160 °C	Cc1cccc(C(=O)Nc2ccc(O)cc2)c1
222 to 224 °C	Cc1ccccc1CC(=O)Nc1ccc(C(=O)O)c(O)c1
189 to 191 °C	COC(=O)c1ccc(C(N)=S)cc1
103 to 105 °C	COc1ccc(C(=O)C2CCOCC2)cc1
184 to 186 °C	COc1cc(C=O)ccc1OCC(=O)O
167 to 169 °C	Cc1ccc(S(=O)(=O)NC(C(=O)O)C(C)C)cc1 (stereo not given)
219 to 221 °C	Cc1c(C(=O)O)nnn1-c1ccc2ncccc2c1
149 to 151 °C	NC(=O)C=Cc1cccnc1
62 to 64 °C	O=C(OCc1ccccc1)N1CCC(S(=O)(=O)Cl)CC1
52 to 54 °C	O=Cc1cccc(Cl)c1O
134 to 138 °C	CON(C)S(=O)(=O)c1cccc(C(=O)O)c1
154 to 156 °C	Cc1cc(N)ccc1C(N)=O
185 to 187 °C	CCOc1cc(C(=O)O)ccc1OCc1cccnc1
59 to 61 °C	Cc1ccc(C(=O)NN)o1
99 to 101 °C	O=C(O)Cc1ccc(S(=O)(=O)CCO)cc1
99 to 101 °C	Cc1ccccc1C(N)CO (stereo not given)
238 to 240 °C	NC(=O)c1ccccc1OCc1cccc(C(=O)O)c1
102 to 104 °C	Cc1ccccc1Cc1cnc(N)s1
144 to 146 °C	COC(=O)Cn1cnc2cc(F)ccc2c1=O
242 to 244 °C	O=C(O)C1CCCN1Cc1ccc(F)cc1 (stereo not given)

melting point	SMILES
179 to 181 °C	O=C(O)c1cn(Cc2ccccn2)nn1
156 to 158 °C	CC(C)Oc1ccc(/C=C/C(=O)O)cc1
76 to 80 °C	Cc1cc(C(=O)CCl)c(C)n1-c1ccc(OC(F)(F)F)cc1
74 to 76 °C	Nc1ccccc1C(=O)N1CCOCC1
95 to 97 °C	CCOC(=O)Nc1cccc(O)c1
143 to 145 °C	COC(=O)c1c(NC(=O)CCl)sc(C)c1C
101 to 103 °C	CN(C)CCCNS(=O)(=O)c1cccc(C#N)c1
159 to 161 °C	N#CCC(=O)Nc1ncccn1
198 to 200 °C	CN(C)c1ccc(C(=O)O)cc1[N+](=O)[O-]
229 to 231 °C	Cc1cc(=O)n(CC(=O)NC(C)C)c(C)c1C(=O)O
81 to 83 °C	Cc1cc(Br)ccc1N1CC(C(=O)O)CC1=O (stereo not given)
142 to 144 °C	CC(C)c1ccc(CCC(N)=O)cc1
98 to 100 °C	O=C(O)Cc1cc(=O)n(-c2ccccn2)[nH]1
130 to 132 °C	Nc1cc(-c2cccc(Cl)c2)n[nH]1
129 to 131 °C	Cc1cc(F)ccc1-n1cc(C(=O)O)nn1
174 to 176 °C	Cc1ccc(CNC(=O)NCC(=O)O)cc1
319 to 321 °C	O=c1c2ccccc2[nH]c2ccc(O)cc12
199 to 201 °C	Cc1cccc2c(=O)n(CCC(=O)O)cnc12
133 to 135 °C	CC(=O)Nc1cc(F)c(S(=O)(=O)Cl)c(F)c1
59 to 62 °C	CC(=O)c1ccc(C)c([N+](=O)[O-])c1
38 to 42 °C	N#CCCNc1ccc(F)cc1
